Results taken from ChEMBL document CHEMBL1151237, “Chamuvarinin, an acetogenin bearing a tetrahydropyran ring from the roots of Uvaria chamae” (J Nat Prod, 2004).

Test: Cytotoxicity against human KB3-1 cells by colorimetric assay
Format: functional, cell-based
Details: KB 3-1

Row | SMILES | IC50
1 | CCCCCCC1CCCC(C2CCC([C@H]3CC[C@H]([C@H](O)CCCCCCCCCCCCC4=C[C@H](C)OC4=O)O3)O2)O1 (some centres not stated) [CHAMUVARININ] | 0.8 nM
2 | CCCCCC[C@H](O)CCC[C@H](O)[C@H]1CC[C@H]([C@H]2CC[C@H]([C@H](O)CCCCCCCCCCCCC3=C[C@H](C)OC3=O)O2)O1 [SQUAMOCIN] | 0.003 nM
